# Assay results reported in paper PMC6386929, “Evaluation of the Antimicrobial Activity of Cationic Peptides Loaded in Surface-Modified Nanoliposomes against Foodborne Bacteria” (International Journal of Molecular Sciences, 2019).
# Where no end group is shown, it is not given here.
# Assays:
# [1] = system: E. coli ATCC25922; type: cell-based, Escherichia coli
# Source text: (§1) L. monocytogenes ATCCbaa751 and E. coli ATCC25922, were obtained from the American Type Culture Collection (ATCC; Rockville, MD, USA). NovaPEG Rink Amida resin, Fmoc-protected amino acids, 2-(1H-benzotriazole-1-yl)-1,1,3,3-tetramethyluronium tetrafluoro-borate (TBTU), Piperidine, N,N-Diisopropylethylamine (DIEA), Ninhydrin, Dimethylformamide (DMF), Trifluoroacetic acid (TFA), 1,2-Ethanedithiol (EDT), Triisopropylsilane (TIS) and Mueller Hinton Broth (MHB) were purchased in Merck (Darmstadt, Germany). Cholesterol, Epikuron 200® and dioleoyl-phosphatidyl-ethanolamine (DOPE) were obtained from Avanti Polar Lipids (Alabaster, Alabama, USA). Eudragit® E-100 was purchased in Evonik (Darmstadt, Germany). Ampicillin (Fersinsa Gb) was supplied by Tecnoquímicas S.A. (Cali, Colombia) and Gentamicin solution (GENFAR®, Cali, Colombia) was purchased from a local pharmacy. The datasets used and materials using during this study are available from the corresponding author on reasonable request.
# (§2) Microbial susceptibility tests were performed according to clinical and laboratory standards institute (CLSI) standard methods. Bacteria were inoculated in MHB and incubated overnight at 37 °C. […] After incubation, the minimum inhibitory concentration (MIC) was determined by visual analysis.
# [2] = system: L. monocytogenes ATCCbaa751; type: cell-based, Listeria monocytogenes
# Source text: as §1, §2
# [3] = Surface tension (pendant drop) and aggregation index (dual-angle DLS) of peptides in aqueous media; type: physicochemical; details: PBS pH 7.2, 138 mM NaCl; peptide 0–50 µM; pendant drop and dual-angle DLS (173° and 13°); triplicate
# Description: Surface tension measurements of the peptides were carried out using a contact angle meter (OCA15EC Dataphysics Instruments, Filderstadt, Germany) with a software driver (version 4.5.14 SCA22), where the data capture was recorded using an IDS video camera. For this, the pendant-drop method was performed in triplicate, where peptide concentrations between 0 and 50 µM were prepared with ultrapure water and phosphate buffer saline pH 7.2 (PBS, 138 mM NaCl, 3 mM KCl, 1.5 mM NaH2PO4, 8.1 mM Na2HPO4). The samples of peptides +2 and +5 were prepared in serial concentrations between 0 and 50 µM in PBS buffer pH 7.2 at 138 mM of ionic strength. An aliquot was analysed immediately after preparation. Dual angle DLS measurements (173° and 13°) of automatic duration were carried out using a Zetasizer Nano ZSP (Malvern Instruments, Worcestershire, United Kingdom). The Aggregation Index is a parameter based on the mean z-average size measured for the two angles of scattering according to the equation: (1) Aggregation index=[Zfwd/Zbkd−1] where, Zfwd is the average particle size detected by forward scatter optics at 13°. Trace amounts of aggregate are often highly useful for the enhanced detection of large protein aggregates, whereas Zbkd is the particle size average at a detection angle of 173° (non-invasive back-scatter).
# [4] = system: E. coli; details: cited from earlier work
# Source text: (§3) Alyteserin-1c is an AMP comprising a 23 amino acid residue (net charge: +2) and was first isolated from norepinephrine-stimulated skin secretions from the midwife toad Alytes obstetricans. […] Although AMPs are an alternative means for eliminating bacteria in foods, due to their biocompatibility, biodegradability, broad spectrum of activity and potent bactericidal properties, most ...
# [5] = system: human erythrocytes; details: cited from earlier work
# Source text: as §3
Sequence,MIC [1] [µM],MIC [2] [µM],concentration at which changes in surface tension and aggregation index are achieved [3] [µM],MIC [4] [µM],hemolytic activity [5]
GLKRIFKSGLGKLVKGISAHVAS [peptide +5],62.5,62.5,5 to 10,–,–
"GLKEIFKAGLGSLVKGIAAHVAS [peptide +2, Alyteserin-1c]",15.2,125,20,25,low hemolytic activity
